# Assay results from patent US9944666B2, “Compounds that are S1P modulating agents and/or ATX modulating agents” (BIOGEN MA INC., priority 2012, dated 2018).
# Molecular target: T1, Human ATX protein (Homo sapiens, UniProt Q13822)
# T1 construct: made in house
# Assay: ATX biochemical FRET assay with FS-3 substrate
# Conditions: FS-3 2 μM, ATX 1.0 μg/mL, room temperature 2 hours, fluorescence 485/538 nm
# Excerpt: ATX (Autotaxin) is a 125 KDa glycoprotein with lysophospholipase D (LPLD) activity that generates the bioactive lipid lysophosphatidic acid (LPA) from lysophosphatidylcholine (LPC). The ATX biochemical assay utilizes a FRET (fluorescence resonance energy transfer) technology platform. The fluorescence signal of FRET substrate FS-3 is quenched due to intra-molecular FRET of a fluorophore to a non-fluorescing quencher (Ferguson, C. G., et al., Org Lett. 2006 May 11; 8(10): 2023-2026, which is incorporated by reference in its entirety). ATX catalyzes the hydrolysis of the substrate which separates the dabsyl quencher from the fluorescein reporter, which becomes fluorescent. The reaction is monitored by a SpectraMax M5 (Molecular Devices, Sunnyvale, Calif.) with at excitation wavelength 485 nm and emission wavelength […].
# Fatty acid free-BSA (Sigma A8806): 10 mg/ml, in H2O, stored at 4° C.
# 2×ATX assay buffer: 100 mM Tris, 280 mM NaCl, 10 mM KCl, 2 mM CaCl2, 2 mM MgCl2, pH 7.4.
# Human ATX protein: expressed and purified in house. Stored at −80° C.
# Substrate FS-3 (Echelon, L-2000): 100 μg in 77.74 μL H2O (1 mM stock), stored at −20° C.
# 384-well flat bottom plates—Corning #3575.
# Compound dilution—All compounds were provided at 10 mM in 100% DMSO. In the first well, 2 μL of 10 mM compound was added to 78 μL of DMSO (1:40 dilution). In subsequent wells 3-fold dilution (total 10 dilutions) were performed.
# 1×ATX assay buffer was made up with a final concentration of 1 mg/mL fatty acid free-BSA using 2×ATX assay buffer, 10 mg/ml fatty acid free-BSA and ddH2O.
# ATX protein was diluted with 1×ATX assay buffer to a concentration of 1.32 μg/mL (1.32×). 38 μL was added per well to the assay plate. The final concentration of ATX in the reaction as 1.0 μg/mL.
# 2 μL per well of compounds was transferred to provide the desired concentration. The plate was centrifuged, then incubated at room temperature for 30 minutes on the shaker.
# FS-3 was diluted with 1×ATX assay buffer to a concentration of FS-3 of 10 μM (5×). Then, 10 μL was added per well to the assay plate. The final concentration of FS-3 in the reaction was 2 μM. The plate was centrifuged. The plate was kept shaking at room temperature for 2 hours. Because FS-3 substrate is light sensitive, plates were kept covered and protected from light.
# Fluorescence was measured using SpectraMax M5 (excitation at 485 nm/emission at 538 nm, top read).
row,SMILES,IC50 [nM]
1,"CC(c1ccc2c(C(F)F)c(O[C@H]3CC[C@@H](C)CC3)ccc2c1)N1C2CCCC1CC(C(=O)O)C2 (single isomer, unassigned; enantiomer 1) [Example 138, 9-(1-(5-(difluoromethyl)-6-((cis-4-methylcyclohexyl)oxy)naphthalen-2-yl)ethyl)-9-azabicyclo[3.3.1]nonane-3-carboxylic acid, enantiomer 1]",≤ 100
2,"CCC(c1ccc2c(C(F)F)c(O[C@H]3CC[C@@H](C)CC3)ccc2c1)N1C2CCC1CC(C(=O)O)C2 (single isomer, unassigned; enantiomer 1) [Example 140, 8-(1-(5-(difluoromethyl)-6-((cis-4-methylcyclohexyl)oxy)naphthalen-2-yl)propyl)-8-azabicyclo[3.2.1]octane-3-carboxylic acid, enantiomer 1]",≤ 100
3,"O=C(O)C1CC2CCC(C1)C2NCc1ccc2c(C(F)(F)F)c(O[C@H]3CC[C@@H](C(F)(F)F)CC3)ccc2c1 (single isomer, unassigned; enantiomer 1) [Example 162, N-(5-trifluoromethyl-6-(cis-4-trifluoromethyl-cyclohexyloxy)-naphthalen-2-ylmethyl)-8-aminobicyclo[3.2.1]octane-3-carboxylic acid, enantiomer 1]",≤ 250
4,"CC(c1ccc2c(C(F)(F)F)c(O[C@H]3CC[C@@H](C(F)(F)F)CC3)ccc2c1)N1C2CCC1CC(C(=O)O)C2 (single isomer, unassigned; enantiomer 1) [Example 173, 8-(1-(5-(trifluoromethyl)-6-((cis-4-(trifluoromethyl)cyclohexyl)oxy)naphthalen-2-yl)ethyl)-8-azabicyclo[3.2.1]octane-3-carboxylic acid, enantiomer 1]",≤ 100
5,"CC(c1ccc2c(C(F)(F)F)c(O[C@H]3CC[C@@H](C)CC3)ccc2c1)N1C2CCC1CC(C(=O)O)C2 (single isomer, unassigned; enantiomer 2) [Example 131, 8-(1-(6-((cis-4-Methylcyclohexyl)oxy)-5-(trifluoromethyl)naphthalen-2-yl)ethyl)-8-azabicyclo[3.2.1]octane-3-carboxylic acid, enantiomer 2]",≤ 100
6,"CC[C@H]1CC[C@@H](Oc2ccc3cc(CN4C5CCCC4CC(C(=O)O)C5)ccc3c2)CC1 (stereo partly drawn) [Example 83, 9-((6-((cis-4-ethylcyclohexyl)oxy)naphthalen-2-yl)methyl)-9-azabicyclo[3.3.]nonane-3-carboxylic acid]",≤ 500
7,"O=C(O)C1CC2CCCC(C1)N2Cc1ccc2c(C(F)(F)F)c(O[C@H]3CC[C@@H](C(F)(F)F)CC3)ccc2c1 (stereo partly drawn) [Example 84, 9-((5-(trifluoromethyl)-6-((cis-4-(trifluoromethyl)cyclohexyl)oxy)naphthalen-2-yl)methyl)-9-azabicyclo[3.3.1]nonane-3-carboxylic acid]",≤ 100
8,"O=C(O)C1CC(NCc2ccc3c(C(F)(F)F)c(O[C@H]4CC[C@@H](C(F)(F)F)CC4)ccc3c2)C12CCCCC2 (stereo partly drawn) [Example 85, 3-(((5-(trifluoromethyl)-6-((cis-4-(trifluoromethyl)cyclohexyl)oxy)naphthalene-2-yl)methyl)amino)spiro[3.5]nonane-1-carboxylic acid]",≤ 500
9,CC(c1ccc2c(C(F)(F)F)c(O[C@H]3CC[C@@H](C(F)(F)F)CC3)ccc2c1)N1C2CCCC1CC(C(=O)O)C2 (some centres unmarked) [Example 88],≤ 100
10,"CC(c1ccc2c(C(F)(F)F)c(O[C@H]3CC[C@@H](C)CC3)ccc2c1)N1C2CCCC1CC(C(=O)O)C2 (stereo partly drawn) [Example 93, 9-(1-(6-((cis-4-Methylcyclohexyl)oxy)-5-(trifluoromethyl)naphthalen-2-yl)ethyl)-9-azabicyclo[3.3.1]nonane-3-carboxylic acid]",≤ 100
11,"C[C@H]1CC[C@@H](Oc2ccc3cc(CN4C5CCC4CC(C(=O)O)C5)ccc3c2C(F)(F)F)CC1 (stereo partly drawn) [Example 96, 8-((6-((cis-4-Methylcyclohexyl)oxy)-5-(trifluoromethyl)naphthalen-2-yl)methyl)-8-azabicyclo[3.2.1]octane-3-carboxylic acid]",≤ 500
